In US8273340B2, “Methods and compositions for attracting or repelling cockroaches” (The United States of America, as represented by the …, priority 2008, dated 2012):
Marks after values point to notes of the source that are not given here.

Tests used:
Type in all cases: in vivo
[1] = tested on: Male cockroaches (Blattela germanica); assay: Y-tube olfactometer bioassay of controlled release pellets aged in a fume hood; details: for Percent Response: mean of 3 replicates; for activity in the olfactometer (in words): charcoal as the absorbent, after one hour in the fume hood
From the text: (§1) Olfactometer Bioassay: The Y-tube bioassay apparatus was similar to that described by Vander Meer et al. (J. Chem. Ecol., 14: 825-838 (1988)). Compressed air (breathing-air quality) was passed into the two choice arms at 0.2 l/min for a total flow of 0.4 l/min. Flow rates were adjusted and controlled by two flow meters (Omega Engineering, Inc.). All tubing carrying the air was either copper or Teflon. Prior to evaluating treatment samples, a positive standard was put through the bioassay procedure. The standard was initially an attractive food material (grape flavoring concentrate used at 0.33%) and later 0.5% (w/v) methyl tiglate, one of the compounds of the present invention, in white, light mineral oil (Aldrich Chemical Co.). […] Test samples (10.0 μl) and the solvent blank (mineral oil, 10.0 μl) were applied to filter paper strips (0.3×1.0 cm, Whatman No. 1) and then each was placed into one of the two choice arms. Male cockroaches (Blattela germanica) were prepared for their introduction into the olfactometer by placing them in a Teflon tube (3 cm×0.8 cm) that had one end blocked with a piece of copper mesh screen. The open end of tube was closed with a lightly attached piece of tape. The cockroaches were introduced individually by removing the tape and quickly inserting the Teflon tube into the entrance arm of the olfactometer. […] The initial choice of the cockroach was recorded. The cockroach was removed and the process was repeated 10 times with the same test and blank samples. The 10 choices usually required less than 5 minutes to complete. After each set of 10 cockroaches had made their choice, the olfactometer was rinsed with acetone, dried, and reassembled for the next test. Each sample was retested with the same cockroaches, but with the sample and control in reverse positions. The sum of the results from the two tests represented one replicate. This procedure minimized bias inherent in the apparatus. A null hypothesis of equal numbers of cockroaches in each arm was tested with chi-square analysis. […] Results in-between were neutral.
Controlled Release Formulations: Four esters found to be significant cockroach attractants were selected for evaluation in controlled release formulations-developed by BioGuard, Inc. Six controlled release formulations from BioGuard were evaluated in the olfactometer. The attractants were methyl tiglate, butyl hexanoate, propyl propanoate, and butyl heptanoate. The attractants were absorbed to either coconut shell charcoal pellets or potassium substituted crystalline zeolite pellets, and then coated with water soluble methylcellulose. The powdered methyl cellulose was dissolved in 80° C. water until saturation, cooled to approx 25° C., the pellets immersed into the solution for a 30 sec, and removed and rapidly air dried with 30° C. pre-dried air. The end products were pellets (charcoal=2 mm×4 mm dia.; molecular sieve=4 mm×1.5 mm dia.). […] A single pellet was used in place of the filter paper described above. The control side was left blank.

cockroach = assay: Bioassays for cockroach attraction of attractants sorbed into thermoplastic polymers
From the text: To alleviate the reactivity with the carrier polymers, we attempted to load active compounds into a series of thermoplastic polymers including urethanes and synthetic rubbers, based on the behavior of the active compounds as plasticizers. […] Propyl propanoate, methyl hexanoate, and methyl tiglate were loaded into a series of thermoplastic granulated feed materials, including 4-(1,1,3,3-tetramethylbutyl) with ethylene-5-ethylidenebicyclo[2.2.1]hept-2-ene-propene thermoplastic synthetic rubber (Santopren™ 203-40). Santoprene™ is a thermoplastic elastomer (TPE that is a mixture of in-situ cross linking of EPDM rubber and polypropylene compounds). Because of the longer life of Santopren™ in both extreme hot and cold environments, it is often preferred over the use of rubber. Pellethane™ 2102-55D is a polyester polycaprolactone polyurethane. Methyl hexanoate and methyl tiglate were sorbed using heat and pressure (60° C., 40 psi, 30 min) into the Santoprene® and were effective in bioassays for cockroach attraction. […] Loading rates of active compounds into the Santoprene®, using slightly elevated temperature (60° C.) and 40 psi pressure, were 8-12% by wt for the two compounds.

[2] = tested on: Male cockroaches (Blattela germanica); assay: Y-tube olfactometer bioassay, test compound in mineral oil on filter paper; details: for Percent Response: 0.5% w/v solution in mineral oil, mean of 3 replicates, 65% or more = significantly attractive (*), 35% or less = significantly repellent (**)
From the text: The German cockroach (Blattela germanica) is one of the most difficult cockroach species to control in homes and was used to illustrate the invention. […] Since the cockroaches never contact the test sample, their response is strictly to the molecules in the air stream.
as §1, with “procedure.” for “procedure. The standard was initially an attractive food material (grape flavoring concentrate used at 0.33%) and later 0.5% (w/v) methyl tiglate, one of the compounds of the present invention, in white, light mineral oil (Aldrich Chemical Co.).”
The diameter of the Y part of the olfactometer provided a close fit for the cockroach, thus keeping it in the center of the walkway.

[3] = Charcoal absorbent, methylcellulose coated pellet, aged 1 hour in fume hood
[4] = Molecular Sieve absorbent, methylcellulose coated pellet, aged 1 hour in fume hood
[5] = sorbed into Santoprene (60° C., 40 psi, 30 min)

Structure (SMILES): CCCOC(=O)CC [Propyl Propanoate]
- Percent Response [1, 3]: 65.0%
- Percent Response [1, 4]: 50.0%
- activity in the olfactometer (in words) [1]: significantly active
- effect in bioassays for cockroach attraction (in words) (cockroach; loaded into Dow Pellethane): neither of these systems worked well
- effect in bioassays for cockroach attraction (in words) (cockroach; [5]): neither of these systems worked well
- Percent Response [2]: 70.0* %

Structure (SMILES): C/C=C(\C)C(=O)OC [methyl tiglate, methyl ester of tiglic acid (trans-2-methyl-2-butenoic acid (methyl tiglate))]
- Percent Response [1, 3]: 76.6%
- Percent Response [1, 4]: 50.0%
- activity in the olfactometer (in words) [1]: significantly active
- Percent Response ([1]; charcoal controlled release formulation, aged 24 hours in fume hood): 66.7%
- Percent Response ([1]; charcoal controlled release formulation, aged 48 hours in fume hood): 61.6%
- effect in bioassays for cockroach attraction (in words) (cockroach; loaded into Dow Pellethane): worked less well
- effect in bioassays for cockroach attraction (in words) (cockroach; [5]): effective
- Percent Response [2]: 80.0%
- percent of responding cockroaches attracted ([2]; three concentrations (0.25 to 0.75) in mineral oil, N=1, FIG. 8): ≥ 65%
